Data taken from ChEMBL document CHEMBL3044893, “Synthesis and structureactivity relationships of aliphatic isothiocyanate analogs as antibiotic agents” (Med Chem Res, 2013).
≈ marks a conversion by molar mass, not a printed value.

How the values were obtained:
Rhizoctonia solani [1] = test: Growth inhibition of Rhizoctonia solani at 10 ug/ml after 24 to 28 […] by growth rate method; type: functional; details: read-out: GI
[2] = tested on: Pectobacterium carotovorum; test: Growth inhibition of Pectobacterium carotovorum at 10 ug/ml after 12 hr by turbidometric analysis; type: functional; details: read-out: GI
Rhizoctonia solani [3] = test: Antifungal activity against Rhizoctonia solani after 24 to 28 […] by growth rate method; type: functional, organism-based
Rhizoctonia solani [4] = test: Growth inhibition of Rhizoctonia solani at 300 ug/ml after 24 to 28 […] by growth rate method; type: functional; details: read-out: GI
Rhizoctonia solani [5] = test: Growth inhibition of Rhizoctonia solani at 500 ug/ml after 24 to 28 […] by growth rate method; type: functional; details: read-out: GI
[6] = tested on: Pectobacterium carotovorum; test: Growth inhibition of Pectobacterium carotovorum at 5 ug/ml after 12 hr by turbidometric analysis; type: functional; details: read-out: GI
[7] = 1-octanol-water partition coefficient, log P of the compound by shake flask method; type: physicochemical
Rhizoctonia solani [8] = test: Growth inhibition of Rhizoctonia solani at 50 ug/ml after 24 to 28 […] by growth rate method; type: functional; details: read-out: GI
[9] = tested on: Pectobacterium carotovorum; test: Growth inhibition of Pectobacterium carotovorum at 50 ug/ml after 12 hr by turbidometric analysis; type: functional; details: read-out: GI
Rhizoctonia solani [10] = test: Growth inhibition of Rhizoctonia solani at 100 ug/ml after 24 to 28 […] by growth rate method; type: functional; details: read-out: GI
[11] = tested on: Pectobacterium carotovorum; test: Growth inhibition of Pectobacterium carotovorum at 20 ug/ml after 12 hr by turbidometric analysis; type: functional; details: read-out: GI
[12] = tested on: Pectobacterium carotovorum; test: Growth inhibition of Pectobacterium carotovorum at 30 ug/ml after 12 hr by turbidometric analysis; type: functional; details: read-out: GI
[13] = tested on: Pectobacterium carotovorum; test: Antibacterial activity against Pectobacterium carotovorum after 12 hr by turbidometric analysis; type: functional, organism-based
[14] = tested on: Pectobacterium carotovorum; test: Growth inhibition of Pectobacterium carotovorum at 0.5 ug/ml after 12 hr by turbidometric analysis; type: functional; details: read-out: GI
[15] = tested on: Pectobacterium carotovorum; test: Growth inhibition of Pectobacterium carotovorum at 0.01 ug/ml after 12 hr by turbidometric analysis; type: functional; details: read-out: GI
[16] = tested on: Pectobacterium carotovorum; test: Growth inhibition of Pectobacterium carotovorum at 1 ug/ml after 12 hr by turbidometric analysis; type: functional; details: read-out: GI
[17] = tested on: Pectobacterium carotovorum; test: Growth inhibition of Pectobacterium carotovorum at 2 ug/ml after 12 hr by turbidometric analysis; type: functional; details: read-out: GI
[18] = tested on: Pectobacterium carotovorum; test: Growth inhibition of Pectobacterium carotovorum at 0.2 ug/ml after 12 hr by turbidometric analysis; type: functional; details: read-out: GI
[19] = tested on: Pectobacterium carotovorum; test: Growth inhibition of Pectobacterium carotovorum at 0.02 ug/ml after 12 hr by turbidometric analysis; type: functional; details: read-out: GI
[20] = tested on: Pectobacterium carotovorum; test: Growth inhibition of Pectobacterium carotovorum at 0.05 ug/ml after 12 hr by turbidometric analysis; type: functional; details: read-out: GI
Rhizoctonia solani [21] = test: Growth inhibition of Rhizoctonia solani at 5 ug/ml after 24 to 28 […] by growth rate method; type: functional; details: read-out: GI
Rhizoctonia solani [22] = test: Growth inhibition of Rhizoctonia solani at 70 ug/ml after 24 to 28 […] by growth rate method; type: functional; details: read-out: GI
[23] = tested on: Pectobacterium carotovorum; test: Growth inhibition of Pectobacterium carotovorum at 70 ug/ml after 12 hr by turbidometric analysis; type: functional; details: read-out: GI
Rhizoctonia solani [24] = test: Growth inhibition of Rhizoctonia solani at 25 ug/ml after 24 to 28 […] by growth rate method; type: functional; details: read-out: GI
[25] = tested on: Pectobacterium carotovorum; test: Growth inhibition of Pectobacterium carotovorum at 100 ug/ml after 12 hr by turbidometric analysis; type: functional; details: read-out: GI
Rhizoctonia solani [26] = test: Growth inhibition of Rhizoctonia solani at 15 ug/ml after 24 to 28 […] by growth rate method; type: functional; details: read-out: GI
[27] = tested on: Pectobacterium carotovorum; test: Growth inhibition of Pectobacterium carotovorum at 80 ug/ml after 12 hr by turbidometric analysis; type: functional; details: read-out: GI

| SMILES | inhibition of growth at 10 µg/mL (Rhizoctonia solani [1]) [%] | inhibition of growth at 10 µg/mL [2] [%] | EC50 (Rhizoctonia solani [3]) [µg/mL] | inhibition of growth at 300 µg/mL (Rhizoctonia solani [4]) [%] | inhibition of growth at 500 µg/mL (Rhizoctonia solani [5]) [%] | inhibition of growth at 5 µg/mL [6] [%] | logP [7] | inhibition of growth at 50 µg/mL (Rhizoctonia solani [8]) [%] | inhibition of growth at 50 µg/mL [9] [%] | inhibition of growth at 100 µg/mL (Rhizoctonia solani [10]) [%] | inhibition of growth at 20 µg/mL [11] [%] | EC50 [13] [µg/mL] | inhibition of growth at 5 µg/mL (Rhizoctonia solani [21]) [%] | further results |
| --- | --- | --- | --- | --- | --- | --- | --- | --- | --- | --- | --- | --- | --- | --- |
| CCCCCCCN=C=S [1-ISOTHIOCYANATOHEPTANE] | 21.6 | 68 | 54.5 (≈ 346 µM) | 75.1 | 89.1 | 28.8 | 4.19 | 46.6 | 97 | 62 | 84.1 | 7.51 (≈ 47.7 µM) |  | inhibition of growth at 30 µg/mL [12]: 94.4% |
| CCCCCCN=C=S [1-ISOTHIOCYANATOHEXANE] |  |  |  |  |  |  | 3.68 |  |  |  |  |  |  |  |
| CCCCCCCCN=C=S [1-ISOTHIOCYANATOOCTANE] | 21.8 | 83.1 | 34.7 (≈ 203 µM) | 82.2 | 84.2 | 70.6 | 4.7 | 66.1 |  | 74.8 |  | 1.17 (≈ 6.83 µM) |  | inhibition of growth at 0.5 µg/mL [14]: 24.7%; inhibition of growth at 0.01 µg/mL [15]: 6.4%; inhibition of growth at 1 µg/mL [16]: 47.8% |
| CCCCCN=C=S [1-ISOTHIOCYANATOPENTANE] | 16 |  | 90 (≈ 696 µM) | 69 | 87.4 | 72.3 | 3.17 | 34.9 |  | 44.6 |  | 2.03 (≈ 15.7 µM) |  | inhibition of growth at 2 µg/mL [17]: 36%; inhibition of growth at 0.5 µg/mL [14]: 26.2%; inhibition of growth at 0.2 µg/mL [18]: 22.3%; inhibition of growth at 0.02 µg/mL [19]: 2.04% |
| CCCCN=C=S [BUTYL ISOTHIOCYANATE] | 15.5 | 43.9 | 42.8 (≈ 372 µM) | 91.6 |  | 31.7 | 2.66 | 57.7 |  | 68.2 | 84.4 | 26.1 (≈ 227 µM) | 3.72 | inhibition of growth at 0.2 µg/mL [18]: 10.7%; inhibition of growth at 0.05 µg/mL [20]: 6.38% |
| CCN=C=S [ETHYL ISOTHIOCYANATE] | 61.1 | 6.74 | 3.52 (≈ 40.4 µM) |  |  |  | 1.64 | 67.3 | 64.6 | 91.8 | 11.7 | 41.6 (≈ 478 µM) | 58.8 | inhibition of growth at 70 µg/mL (Rhizoctonia solani [22]): 73.9%; inhibition of growth at 70 µg/mL [23]: 94.8%; inhibition of growth at 30 µg/mL [12]: 48.5% |
| CN=C=S [METHYLISOTHIOCYANATE] | 41.5 | 10.9 | 12.3 (≈ 169 µM) |  |  |  | 1.13 | 77.5 | 61.1 | 84.6 | 29.9 | 38.2 (≈ 523 µM) |  | inhibition of growth at 25 µg/mL (Rhizoctonia solani [24]): 66.3%; inhibition of growth at 100 µg/mL [25]: 81.3%; inhibition of growth at 15 µg/mL (Rhizoctonia solani [26]): 49.7%; inhibition of growth at 80 µg/mL [27]: 71.5% |
| CCCN=C=S [PROPYL ISOTHIOCYANATE] | 50.1 | 29 | 12 (≈ 118 µM) | 93.7 |  |  | 2.15 | 68 | 76.3 | 84.2 | 47 | 20.6 (≈ 204 µM) | 21.4 | inhibition of growth at 100 µg/mL [25]: 90.7%; inhibition of growth at 80 µg/mL [27]: 86% |
